Measurements from PubChem BioAssay (NCI).
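Cells were grown in 96-well plates and exposed to each compound for 48 hours at five concentrations; endpoints were interpolated linearly between bracketing concentrations, or set to the highest concentration if not reached. GI50 marks 50% less growth. TGI: concentration producing complete growth inhibition.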

Columns and labels:
Assay in all cases: NCI anticancer screen, dose series, 48 h
HOP-62 NSCLC = test system: HOP-62 NSCLC
IGROV1 ovarian = test system: IGROV1 ovarian
LOX IMVI melanoma = test system: LOX IMVI melanoma
MCF7 breast = test system: MCF7 breast
NCI-H23 lung = test system: NCI-H23 lung
OVCAR-8 ovarian = test system: OVCAR-8 ovarian
RPMI-8226 leukemia = test system: RPMI-8226 leukemia
SW-620 colon = test system: SW-620 colon
TK-10 renal = test system: TK-10 renal
UACC-62 melanoma = test system: UACC-62 melanoma

| Structure (SMILES) | GI50 (HOP-62 NSCLC) [µM] | TGI (HOP-62 NSCLC) [µM] | GI50 (IGROV1 ovarian) [µM] | TGI (IGROV1 ovarian) [µM] | GI50 (LOX IMVI melanoma) [µM] | TGI (LOX IMVI melanoma) [µM] | GI50 (MCF7 breast) [µM] | TGI (MCF7 breast) [µM] | GI50 (NCI-H23 lung) [µM] | TGI (NCI-H23 lung) [µM] | GI50 (OVCAR-8 ovarian) [µM] | TGI (OVCAR-8 ovarian) [µM] | GI50 (RPMI-8226 leukemia) [µM] | TGI (RPMI-8226 leukemia) [µM] | GI50 (SW-620 colon) [µM] | TGI (SW-620 colon) [µM] | GI50 (TK-10 renal) [µM] | TGI (TK-10 renal) [µM] | GI50 (UACC-62 melanoma) [µM] | TGI (UACC-62 melanoma) [µM] |
| --- | --- | --- | --- | --- | --- | --- | --- | --- | --- | --- | --- | --- | --- | --- | --- | --- | --- | --- | --- | --- |
| C[C@H]1c2ccccc2CN1CCCOc1cc2c(cc1OCC1CC1)C1(CCCC1)C(N)=N2 | 3.67 | 10.2 | 2.27 | 9.11 | 0.845 | 1.57 | 1.18 | 3.46 | 3.26 | 10.3 | 2.38 | 8.83 | 1.01 | 3.13 | 0.977 | 2.31 | 2.07 | 8.26 | 0.925 | 1.93 |
| Cc1nn(C(=O)c2ccncc2)c2c1C(c1cccc([N+](=O)[O-])c1)SC(N)=N2 (stereo not drawn) | – | > 10 | – | > 10 | – | > 10 | – | > 10 | – | > 10 | – | > 10 | – | > 10 | – | > 10 | – | > 10 | – | > 10 |
| COc1ccc2c(c1)C(=O)c1c-2n(CCCN)c(=O)c2cc([N+](=O)[O-])ccc12 | < 0.01 | 0.0234 | < 0.01 | 0.192 | < 0.01 | < 0.01 | < 0.01 | < 0.01 | – | – | – | – | < 0.01 | < 0.0222 | < 0.01 | 0.146 | 3.33 | 10 | < 0.01 | < 0.01 |
| COC(=O)/C(=C\c1ccco1)P(=O)(OC)OC | – | 52.7 | – | > 100 | – | 71 | – | > 100 | – | > 100 | – | > 100 | – | > 100 | – | > 100 | – | > 100 | – | > 100 |
| CCN1C(=O)N(CC)C2C1NN=c1s/c(=C\c3ccc[nH]3)c(=O)n12 (stereo not drawn) | 0.603 | > 100 | 0.838 | > 100 | 0.578 | > 100 | 0.273 | > 100 | 1.34 | > 100 | 0.85 | > 100 | 0.481 | > 100 | 0.326 | > 100 | > 47.8 | > 100 | 0.435 | > 100 |
| O=NN(CCCl)C(=O)NC1CCC(=O)NC1=O (stereo not drawn) | – | 505 | – | 1140 | – | 279 | – | > 1190 | – | 842 | – | 293 | – | 617 | – | 270 | – | 1050 | – | 192 |
| O=C1CSC(c2ccccc2O)N1c1nnc(Cn2ccnc2)o1 (stereo not drawn) | 17.6 | > 100 | 16 | 37 | 6.58 | 24.8 | 5.43 | 23.5 | 14.9 | 65 | 17.8 | > 100 | 3.52 | 24.4 | 5.14 | 32.4 | 14.1 | > 100 | 11.5 | 26 |
| O=C1/C(=C/c2cccc(Br)c2)COc2ccc(O)c(O)c21 | 1.84 | 3.74 | 0.996 | 2.68 | 0.658 | 2.04 | 0.649 | 2.56 | 1.74 | 4.25 | 1.06 | 2.86 | 0.248 | 0.649 | 1.06 | 3.52 | 1.7 | 3.1 | 1.64 | 3.14 |
| Cc1c2ccncc2c(C)c2c1c1cc(CO)ccc1n2C | 0.335 | 2.05 | 0.214 | 1.76 | 0.449 | 2.1 | 0.282 | 10.4 | 0.429 | 2.66 | 0.449 | 10.1 | 0.425 | 2.28 | 0.297 | 10.9 | 0.378 | 1.91 | 0.287 | 1.76 |
| Cc1oc2c(c1C(=O)N1CC[C@@H](N)C1)C(=O)c1c(c(O)c3ccccc3c1O)C2=O | 0.51 | 4.11 | 1.27 | 3.94 | 1.1 | 3.96 | 1.01 | 4.9 | 2.61 | 12.2 | 1.25 | 4.65 | 2.51 | 12.6 | 1.08 | 7.28 | 3.07 | 16.3 | 4.46 | 19.6 |
| O=c1cccc(C#CC#CCCCO)o1 | 6.26 | 12.2 | 2.65 | > 22.1 | 2.51 | > 27.9 | 5.02 | 38.3 | 4.17 | 11.7 | 4.33 | > 35.8 | – | > 26.7 | 2.67 | – | 2.97 | 9.55 | 4.42 | 10.5 |
| CN1CCN(c2cc3nc4ccccc4n(-c4ccc(Cl)cc4)c-3cc2=N)CC1 | 23.3 | 65 | 17.2 | 53.5 | 15.7 | 36.6 | 35.6 | > 100 | 15.9 | 32.9 | 13.7 | 38.4 | 12.1 | 35.1 | 23.9 | > 100 | 36.1 | > 100 | 22.9 | 54.8 |
| COc1cc2c(cc1-c1coc3cc(OCC=C(C)C)ccc3c1=O)OCO2 | – | 89.1 | – | > 100 | – | 93.9 | – | > 100 | – | > 100 | – | – | – | 66 | – | > 100 | – | > 100 | – | > 100 |
| NC(=O)c1cccc(-c2cc(C(N)=O)ccc2Cl)c1 | 3.51 | > 100 | 4.21 | > 100 | 4.84 | > 100 | 1.01 | > 100 | 9.21 | > 100 | 4.32 | > 100 | 0.318 | 3.11 | 2.14 | > 100 | 9.12 | > 100 | 1.77 | 56 |
